# Reference: patent US20060258598A1, “Alpha-keto carbonyl calpain inhibitors” (priority 2003, published 2006)
# Key:
# [1] = target: T1, human μ-calpain (Homo sapiens, UniProt P07384); assay: Enzymatic calpain inhibition assay; type: biochemical; conditions: substrate Suc-Leu-Tyr-AMC, read-out: Calp I IC50
# T1 construct: purchased Calbiochem
# T1 sequence (P07384 1-714): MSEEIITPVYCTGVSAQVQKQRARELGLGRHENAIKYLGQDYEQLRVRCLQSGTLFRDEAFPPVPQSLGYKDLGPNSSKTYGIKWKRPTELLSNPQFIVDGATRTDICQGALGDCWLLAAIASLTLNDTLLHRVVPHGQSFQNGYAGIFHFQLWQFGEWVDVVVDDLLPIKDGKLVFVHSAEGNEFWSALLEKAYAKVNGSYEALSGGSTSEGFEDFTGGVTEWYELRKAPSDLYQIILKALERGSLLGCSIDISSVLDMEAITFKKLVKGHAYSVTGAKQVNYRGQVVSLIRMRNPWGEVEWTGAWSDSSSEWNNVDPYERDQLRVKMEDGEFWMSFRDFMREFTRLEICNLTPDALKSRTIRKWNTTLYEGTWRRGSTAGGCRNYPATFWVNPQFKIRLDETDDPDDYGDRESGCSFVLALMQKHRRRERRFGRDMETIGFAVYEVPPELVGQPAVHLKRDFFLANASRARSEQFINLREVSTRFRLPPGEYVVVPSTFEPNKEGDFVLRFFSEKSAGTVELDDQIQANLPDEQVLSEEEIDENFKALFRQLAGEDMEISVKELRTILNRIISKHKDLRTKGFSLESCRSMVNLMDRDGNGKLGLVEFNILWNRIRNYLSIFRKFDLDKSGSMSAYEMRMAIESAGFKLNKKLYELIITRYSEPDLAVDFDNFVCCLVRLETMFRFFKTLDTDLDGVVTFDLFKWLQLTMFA
# T1 sequence (P04632 1-268 partner): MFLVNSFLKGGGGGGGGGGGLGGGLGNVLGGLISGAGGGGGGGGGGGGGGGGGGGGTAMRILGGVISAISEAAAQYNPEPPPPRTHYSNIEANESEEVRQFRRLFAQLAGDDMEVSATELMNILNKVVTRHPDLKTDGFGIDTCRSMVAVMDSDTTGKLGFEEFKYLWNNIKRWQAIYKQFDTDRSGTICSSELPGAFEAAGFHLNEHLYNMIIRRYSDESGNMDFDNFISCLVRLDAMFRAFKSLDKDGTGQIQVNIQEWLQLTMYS
# Method: The Ki value was also determined in some cases. These criteria were used to measure the inhibitory effect of the compounds (I) on calpain I, calpain II and cathepsin B.
# Enzymatic Calpain Inhibition Assay
# The inhibitory properties of calpain inhibitors are tested in 100 μl of a buffer containing 100 mM imidazole pH 7.5, 5 mM L-Cystein-HCl, 5 mM CaCl2, 250 μM of the calpain fluorogenic substrate Suc-Leu-Tyr-AMC (Sigma) (Sasaki et al., J. Biol. Chem., 1984, 259, 12489-12949) dissolved in 2.5 μl DMSO and 0.5 μg of human μ-calpain (Calbiochem). The inhibitors dissolved in 1 μl DMSO are added to the reaction buffer. The fluorescence of the cleavage product 7-amino-4-methylcoumarin (AMC) is followed in a SPECTRAmax GEMINI XS (Molecular Device) fluorimeter at λex=360 nm and λem=440 nm at 30° C. during 30 min at intervals of 30 sec in 96-well plates (Greiner). The initial reaction velocity at different inhibitor concentrations is plotted against the inhibitor concentration and the IC50 values determined graphically.
# [2] = test system: cellular calpains in C2C12 myoblasts; assay: Calpain inhibition assay in C2C12 myoblasts; type: cell-based; conditions: 2 h incubation, calcium ionophore Br-A-23187, read-out: Calp I IC50 Myoblast
# Method: Calpain Inhibition Assay in C2C12 Myoblasts
# This assay is aimed at monitoring the ability of the substance to inhibit cellular calpains. C2C12 myoblasts are grown in 96-well plates in growth medium (DMEM, 20% foetal calf serum) until they reach confluency. The growth medium is then replaced by fusion medium (DMEM, 5% horse serum). 24 hours later the fusion medium is replaced by fusion medium containing the test substances dissolved in 1 μl DMSO. After 2 hours of incubation at 37° C. the cells are loaded with the calpain fluorogenic substrate Suc-Leu-Tyr-AMC at 400 μM in 50 μl of a reaction buffer containing 135 mM NaCl; 5 mM KCl; 4 mM CaCl2; 1 mM MgCl2; 10 mM Glucose; 10 mM HEPES pH 7.25 for 20 min at room temperature. The calcium influx, necessary to activate the cellular calpains, is evoked by the addition of 50 μl reaction buffer containing 20 μM of the calcium ionophore Br-A-23187 (Molecular Probes). The fluorescence of the cleavage product AMC is measured as described above during 60 min at 37° C. at intervals of 1 min. The IC50 values are determined as described above. Comparison of the IC50 determined in the enzymatic calpain inhibition assay to the IC50 determined in the C2C12 myoblasts calpain inhibiton assay, allows to evaluate the cellular uptake or the membrane permeability of the substance.
# [3] = test system: Primary fibroblasts from donors with Friedreich Ataxia (FRDA); assay: BSO assay (cell viability under BSO-induced oxidative stress); type: cell-based, human; conditions: Homo sapiens, Fibroblast, 24 h preincubation, 1 mM BSO
# Method: Primary fibroblasts were derived from donors with molecular diagnosis for Friedreich Ataxia (FRDA) and control donors with no mitochondrial disease. Cell lines were obtained from Coriell Cell Repositories (Camden, N.J.; catalog numbers GM04078, GM08402 and GM08399 respectively). All cell types were diagnosed on the molecular level for intronic […] triplet repeat length of at least 400-450 repeats using a PCR-based method. Experiments were carried out as described in the literature (M. L. Jauslin et al., Human Mol. Genet., 2002, 11, 3055-3063): Cells were seeded in microtiter plates at a density of 4'000 cells per 100 μl in growth medium consisting of 25% (v/v) M199 EBS and 64% (v/v) MEM EBS without phenol red (Bioconcept, Allschwil, Switzerland) supplemented with 10% (v/v) fetal calf serum (PAA Laboratories, Linz, Austria), 100 U/ml penicillin, 100 μg/ml streptomycin (PAA Laboratories, Linz, Austria), 10 μg/ml insulin (Sigma, Buchs, Switzerland), 10 ng/ml EGF (Sigma, Buchs, Switzerland), 10 ng/ml bFGF (PreproTech, Rocky Hill, N.J.) and 2 mM glutamine (Sigma, Buchs, Switzerland). The cells were incubated in the presence of various test compounds for 24 h before addition of L-buthionine-(S,R)-sulfoximine (BSO) to a final concentration of 1 mM. Cell viability was measured after the first signs of toxicity appeared in the BSO-treated controls (typically after 16 to 48 h). The cells were stained for 60 min at room temperature in PBS with 1.2 μM calcein AM and 4 μM ethidium homodimer (Live/Dead assay, Molecular Probes, Eugene, Oreg.). Fluorescence intensity was measured with a Gemini Spectramax XS spectrofluorimeter (Molecular Devices, Sunnyvale, Calif.) using excitation and emission wavelengths of 485 nm and 525 nm respectively.
Structure (SMILES),IC50 [1],IC50 [2],EC50 [3]
CCNC(=O)C(=O)[C@H](CC(C)C)NC(=O)[C@@H](NC(=O)CCCCC1CCSS1)C(C)C (stereo partly shown) [Example 157],0.5 µM,0.25 µM,
CCNC(=O)C(=O)[C@H](Cc1ccc(Br)cc1)NC(=O)[C@H](CC(C)C)NC(=O)CNC(=O)CCCCC1CCSS1 (stereo partly shown) [Example 186],0.04 µM,1.5 µM,5 µM
CCNC(=O)C(=O)[C@H](Cc1ccc(F)cc1)NC(=O)[C@H](CC(C)C)NC(=O)CCCCC1CCS[S+]1[O-] (stereo partly shown) [Example 40],0.035 µM,15 µM,3 µM
CCNC(=O)C(=O)[C@H](Cc1ccc(OC)cc1)NC(=O)[C@@H](NC(=O)CCCCC1CCS[S+]1[O-])C(C)C (stereo partly shown) [Example 85],0.08 µM,0.9 µM,5 µM
CCNC(=O)C(=O)[C@H](Cc1ccc(C#N)cc1)NC(=O)[C@@H](NC(=O)CCCCC1CCSS1)C(C)C (stereo partly shown) [Example 130],0.12 µM,5 µM,20 µM
CCNC(=O)C(=O)[C@H](Cc1ccc(Cl)cc1)NC(=O)[C@@H](NC(=O)CCCCNC(=O)CCCCC1CCSS1)C(C)C (stereo partly shown) [Example 175],0.1 µM,20 µM,> 100 µM
CCNC(=O)C(=O)[C@H](CC1CCCCC1)NC(=O)[C@@H](NC(=O)CCCCC1CCSS1)C(C)C (stereo partly shown) [Example 149],0.25 µM,3 µM,
CCNC(=O)C(=O)[C@H](Cc1ccc(Cl)cc1Cl)NC(=O)[C@@H](NC(=O)CCCCC1CCS[S+]1[O-])C(C)C (stereo partly shown) [Example 34],0.5 µM,20 µM,
CCNC(=O)C(=O)[C@@H](NC(=O)[C@@H](NC(=O)CCCCC1CCS[S+]1[O-])C(C)C)c1ccccc1 (stereo partly shown) [Example 154],0.75 µM,,
CCNC(=O)C(=O)[C@H](Cc1ccc(C(F)(F)F)cc1)NC(=O)[C@H](CC(C)C)NC(=O)CCCCC1CCS[S+]1[O-] (stereo partly shown) [Example 125],0.04 µM,0.8 µM,
CCNC(=O)C(=O)[C@H](Cc1ccc(C(C)(C)C)cc1)NC(=O)[C@@H](NC(=O)CCCCC1CCSS1)C(C)C (stereo partly shown) [Example 118],0.4 µM,1.8 µM,
CCNC(=O)C(=O)[C@H](Cc1ccc(Cl)cc1)NC(=O)[C@@H](NC(=O)CNC(=O)CCCCC1SC[C@@H]2NC(=O)N[C@H]12)C(C)C (stereo partly shown) [Example 212],0.15 µM,3.5 µM,

# Further molecules by falling IC50 [1], results first:
IC50 [1],IC50 [2],Structure (SMILES),EC50 [3]
0.2 µM,1.2 µM,Cc1ccc(S(=O)(=O)CNC(=O)C(=O)[C@H](Cc2ccc(Cl)cc2)NC(=O)[C@@H](NC(=O)CCCCC2CCS[S+]2[O-])C(C)C)cc1 (stereo partly shown) [Example 14],
0.18 µM,7 µM,CCNC(=O)C(=O)[C@H](Cc1ccc(F)cc1)NC(=O)[C@@H](NC(=O)CCCCC1CCS[S+]1[O-])C(C)C (stereo partly shown) [Example 38],20 µM
0.15 µM,8 µM,CCNC(=O)C(=O)[C@H](Cc1ccc(Br)cc1)NC(=O)[C@@H](NC(=O)CCCCC1CCS[S+]1[O-])C(C)C (stereo partly shown) [Example 54],5 µM
0.15 µM,4 µM,CCNC(=O)C(=O)[C@H](Cc1ccc(Cl)cc1)NC(=O)[C@@H](NC(=O)CNC(=O)CCCCC1CCS[S+]1[O-])C(C)C (stereo partly shown) [Example 170],
0.12 µM,2 µM,CCNC(=O)C(=O)[C@H](Cc1ccc(Cl)cc1)NC(=O)[C@@H](NC(=O)CCCC1CCCS1)C(C)C (stereo partly shown) [Example 5],2 µM
0.11 µM,3.2 µM,CCNC(=O)C(=O)[C@H](Cc1ccc(Cl)cc1)NC(=O)[C@@H](NC(=O)CCC1CCCS1)C(C)C (stereo partly shown) [Example 6],
0.1 µM,0.7 µM,CCNC(=O)C(=O)[C@H](Cc1ccc(F)c(F)c1)NC(=O)[C@@H](NC(=O)CCCCC1CCSS1)C(C)C (stereo partly shown) [Example 41],
0.095 µM,0.85 µM,CCNC(=O)C(=O)[C@H](Cc1ccc(C(C)(C)C)cc1)NC(=O)[C@H](CC(C)C)NC(=O)CCCCC1CCSS1 (stereo partly shown) [Example 120],
0.085 µM,11 µM,CCNC(=O)C(=O)[C@H](Cc1ccc(OC)cc1)NC(=O)[C@@H](NC(=O)CCCCC1SC[C@@H]2NC(=O)N[C@H]12)C(C)C (stereo partly shown) [Example 165],60 µM
0.085 µM,10 µM,CCNC(=O)C(=O)[C@H](Cc1ccc(Cl)c(Cl)c1)NC(=O)[C@@H](NC(=O)CCCCC1CCSS1)C(C)C (stereo partly shown) [Example 29],
0.08 µM,1 µM,CCNC(=O)C(=O)[C@H](Cc1ccc(C)cc1)NC(=O)[C@@H](NC(=O)CCCCC1CCS[S+]1[O-])C(C)C (stereo partly shown) [Example 105],0.2 µM
0.06 µM,4 µM,COc1ccc(C[C@H](NC(=O)[C@@H](NC(=O)CCCCC2CCS[S+]2[O-])C(C)C)C(=O)C(=O)O)cc1 (stereo partly shown) [Example 89],
0.06 µM,2.5 µM,CC(C)[C@H](NC(=O)CNC(=O)CCCCC1CCSS1)C(=O)N[C@@H](Cc1ccccc1)C(=O)C(=O)NCc1ccccc1 (stereo partly shown) [Example 209],> 100 µM
0.047 µM,8 µM,CCNC(=O)C(=O)[C@H](Cc1ccccc1)NC(=O)[C@@H](NC(=O)CNC(=O)CCCCC1CCSS1)C(C)C (stereo partly shown) [Example 207],30 µM
0.025 µM,1 µM,CCNC(=O)C(=O)[C@H](Cc1ccc(Cl)cc1)NC(=O)[C@@H](NC(=O)CNC(=O)CCCCC1CCSS1)C(C)C (stereo partly shown) [Example 169],
0.015 µM,0.5 µM,CCNC(=O)C(=O)[C@H](Cc1ccc(I)cc1)NC(=O)[C@H](CC(C)C)NC(=O)CCCCC1CCS[S+]1[O-] (stereo partly shown) [Example 79],
